{"source": "patent US7662852B2", "about": "“Compounds and preparations having antiviral effect” (Lead Chemical Co., Ltd., priority 2003, dated 2010)", "key": {"MT-4 cell": {"tested_on": "MT-4 cell", "settings": "non-infected MT-4 cell, 5 days, MTT", "description": "(§1) For this experiment, human T-cell leukemia virus I (HTLV-I) infected T cell strain, MT-4 cell and T cell leukemia cell strain, MOLT-4 (clone No. 8) cell, HIV-1 continuous infection cell, MOLT-4/IIIB cell were used. The cell was cultured in RPMI-1640 medium (SIGMA) supplemented with 10% inactivated fetal calf plasma (FCS) (MOREGATE, Australia), 100 μg/ml streptomycin and 100 U/ml penicillin G (SIGMA) under a condition of 5% CO2 and 37° C. Subculture was performed every three days by controlling the density to 30×10^4 cells/ml.\n(§2) The anti-HIV activity of each sample to be tested was evaluated by measuring inhibition activity against cytopathogenicity induced by HIV-1 according to MTTassay. The assay was performed in a triplicate mode, and anti-HIV activity and cytotoxicity were measured simultaneously.\n(§3) 96-well plate was used, 10% FCS/RPMI-1640 medium was added in inner 60 wells in an amount of 100 μl/well, and in outer 36 wells in an amount of 200 μl/well in order to prevent evaporation.\n(§4) The samples to be tested that were adjusted with RPMI-1640 medium were added in an amount of 25 μl/well in the first lane of the inner 60 wells, and 5-fold stepwise dilution series were prepared by manipulating pipette. In addition, in the last lane, no sample to be tested was added and regarded as control. MT-4 cell suspended in 30×10^4 cells/ml was prepared in two flasks, and the cells in one flask were infected with HIV-1 IIIB in a multiplicity of infection (MOI) of 0.01. The infected or non-infected MT-4 cells were immediately added to samples to be tested in an amount of 100 μl/ml, and cultured under a condition of 5% CO2 and 37° C.\n5 days later, the viability of cells was measured based on MTT method by use of Titertek Multiskan. MTT adjusted to 7.5 mg/ml with PBS (Ca++, Mg++*free phosphate-buffered saline) was added in an amount of 20 μl/well, and cultured under a condition of 5% CO2 and 37° C., 150 μl of the cultured supernatant was removed and then 100 μl of cytolysis solution (5% (v/v)TritonX-100/acid isopropanol) was added and stirred on a plate mixer for 30 minutes.\nThe absorbance (reference wavelength: 690 nm) was determined with a plate reader at 540 nm. […] Further, ratio of CC50 to EC50, that is, selective index (SI=CC50/EC50) was calculated."}, "HIV-1 IIIB": {"tested_on": "HIV-1 IIIB", "settings": "for Anti-HIV Activity EC50: MT-4 cell infected with T-cell tropic strain HIV-1 IIIB, MOI 0.01, 5 days, MTT; for Safety Index S.I. CC50/EC50 / anti-HIV activity in vitro (in words): MT-4 cell, HIV-1 IIIB", "description": "as §1\nHIV-1 IIIB was prepared from the supernatant of MOLT-4/IIIB cell.\nMOLT-4/IIIB cell was controlled to a density of 30×10^4 cells/ml and then the culture was started. The cultured liquid was collected three days later, and centrifuged at 3000 rpm for 10 minutes at 4° C. […] These supernatants were passed through 0.45 μm filter. The virus stocks were frozen and stored at −80° C. The amount of virus was adjusted depending on an amount of p24.\n• 1) in vitro activity: A phorbol derivative was dissolved in an amount of 1.0 mg in 1.0 ml of DMSO to obtain a concentrated solution.\nas §2, §3, §4\n5 days later, the viability of cells was measured based on MTT method by use of Titertek Multiskan."}, "[1]": {"settings": "30 min", "description": "(§5) • 1) in vitro activity: A phorbol derivative was dissolved in an amount of 1.0 mg in 1.0 ml of DMSO to obtain a concentrated solution. A sample to be tested was prepared by diluting the concentrated solution with a saline or a phosphate buffer to a predetermined concentration. • 2) stability in blood: 1 ml of blood from the abdominal aorta of 6- to 7-week-old BALB/c male mouse was withdrawn in an injector in which 0.1 ml of 3.8% sodium citrate was contained, and centrifuged at 5000 rpm for 10 minutes to obtain a plasma. The plasma was added in a solution to be tested in a proportion of 9:1 to prepare a diluted solution to be tested in a predetermined concentration of 10-fold dilution. The diluted solution was incubated at 37° C. for 30 minutes to prepare a sample to be tested. • 3) in situ activity: the above-mentioned sample to be tested 1) was orally administered to 6- to 7-week-old BALB/c male mouse in a dose of 1 mg/kg, at 20, 40 and 60 minutes after the administration, blood was withdrawn from the abdominal aorta under light anesthetization similarly to those of the 2) above, and the plasma from the blood was used as a sample to be tested."}, "[2]": {"settings": "mouse plasma 37° C. 30 min / living organism", "description": "as §5"}, "HIV-1 JRCSF": {"tested_on": "HIV-1 JRCSF", "settings": "NPB-11 1 ng/ml, PBMC infected with HIV-1 JRCSF, 7 days", "description": "JRCSF was obtained by culturing 293T cell transfected with 15 μg of virus DNA and collecting the cultured liquid two days later. These supernatants were passed through 0.45 μm filter. The virus stocks were frozen and stored at −80° C. The amount of virus was adjusted depending on an amount of p24.\nThe infection to peripheral blood mononuclear cells (PBMC) of JRCSF and the evaluation of the anti-HIV activity were performed as follows. 1×10^6 cells/ml of PBMC was inoculated with JRCSF having 20 ng of p24, and the cells were washed 2 hours later. Thereafter, the cells were cultured in a culture liquid containing an agent to be tested for 7 days, and the antiviral activity was detected by measuring p24.\nThe anti-HIV effect was evaluated by determining the amount of p24 that is one of viral gap proteins and calculating its reduced amount."}}}
{"smiles": "CCCCCCCCCC(=O)OC12C(OC(=O)CC)C(C)C3(O)C(C=C(CO)CC4(O)C(=O)C(C)=CC43)C1C2(C)C", "note": "(centres unmarked) [NPB-5]", "values": [{"measurement": "Cytotoxicity CC50", "setting": "MT-4 cell", "result": 125, "unit": "µg/mL"}, {"measurement": "Anti-HIV Activity EC50", "setting": "HIV-1 IIIB", "result": ">1000", "unit": "ng ng/ml"}, {"measurement": "Safety Index S.I. CC50/EC50", "setting": "HIV-1 IIIB", "result": "125<"}, {"measurement": "anti-HIV activity in vitro (in words)", "setting": "HIV-1 IIIB", "result": "lowered in the activity"}]}
{"smiles": "CCCCCCCCCC(=O)OC12C(OC(C)=O)C(C)C3(O)C(C=C(CO)CC4(O)C(=O)C(C)=CC43)C1C2(C)C", "note": "(centres unmarked) [Sample N-6, reference compound]", "values": [{"measurement": "Heat Stability 56° C., 30′", "setting": "[1]", "result": "Stable"}, {"measurement": "Cytotoxicity CC50", "setting": "MT-4 cell", "result": 3.2638, "unit": "µg/mL"}, {"measurement": "Anti-HIV Activity EC50", "setting": "HIV-1 IIIB", "result": 1.7, "unit": "ng/mL"}, {"measurement": "Safety Index S.I. CC50/EC50", "setting": "HIV-1 IIIB", "result": 1920}, {"measurement": "anti-HIV activity in vitro (in words)", "setting": "HIV-1 IIIB", "result": "extremely strong anti-HIV activity"}]}
{"smiles": "CCCCCCCCCC(=O)OC12C(OC)C(C)C3(O)C(C=C(CO)CC4(O)C(=O)C(C)=CC43)C1C2(C)C", "note": "(centres unmarked) [NPB-13]", "values": [{"measurement": "Cytotoxicity CC50", "setting": "MT-4 cell", "result": 4.6173, "unit": "µg/mL"}, {"measurement": "Anti-HIV Activity EC50", "setting": "HIV-1 IIIB", "result": 118.9, "unit": "ng/mL"}, {"measurement": "Safety Index S.I. CC50/EC50", "setting": "HIV-1 IIIB", "result": 39}, {"measurement": "anti-HIV activity in vitro (in words)", "setting": "HIV-1 IIIB", "result": "weak activity"}, {"measurement": "Biological Stability", "setting": "[2]", "result": "Stable"}]}
{"smiles": "CCCCCCCCCC(=O)OC12C(OCC)C(C)C3(O)C(C=C(CO)CC4(O)C(=O)C(C)=CC43)C1C2(C)C", "note": "(centres unmarked) [NPB-14]", "values": [{"measurement": "Heat Stability 56° C., 30′", "setting": "[1]", "result": "unstable to heat compared with NPB-11"}, {"measurement": "Cytotoxicity CC50", "setting": "MT-4 cell", "result": 3.3240, "unit": "µg/mL"}, {"measurement": "Anti-HIV Activity EC50", "setting": "HIV-1 IIIB", "result": 195.7, "unit": "ng/mL"}, {"measurement": "Safety Index S.I. CC50/EC50", "setting": "HIV-1 IIIB", "result": 17}, {"measurement": "anti-HIV activity in vitro (in words)", "setting": "HIV-1 IIIB", "result": "weak activity"}, {"measurement": "Biological Stability", "setting": "[2]", "result": "Stable"}]}
{"smiles": "CCCCCCCCCC(=O)OC12C(OCOC)C(C)C3(O)C(C=C(CO)CC4(O)C(=O)C(C)=CC43)C1C2(C)C", "note": "(centres unmarked) [NPB-11]", "values": [{"measurement": "Cytotoxicity CC50", "setting": "MT-4 cell", "result": 6.9123, "unit": "µg/mL"}, {"measurement": "Anti-HIV Activity EC50", "setting": "HIV-1 IIIB", "result": 1.7, "unit": "ng/mL"}, {"measurement": "Safety Index S.I. CC50/EC50", "setting": "HIV-1 IIIB", "result": 4066}, {"measurement": "anti-HIV activity in vitro (in words)", "setting": "HIV-1 IIIB", "result": "strong activity"}, {"measurement": "amount of viral protein p24 (antiviral effect)", "setting": "HIV-1 JRCSF", "result": "little viral protein was detected"}]}
{"smiles": "CCCCCCCCCC(=O)OC12C(OC(=O)CCC)C(C)C3(O)C(C=C(CO)CC4(O)C(=O)C(C)=CC43)C1C2(C)C", "note": "(centres unmarked) [NPB-9]", "values": [{"measurement": "Cytotoxicity CC50", "setting": "MT-4 cell", "result": 125, "unit": "µg/mL"}, {"measurement": "Anti-HIV Activity EC50", "setting": "HIV-1 IIIB", "result": ">1000", "unit": "ng ng/ml"}, {"measurement": "Safety Index S.I. CC50/EC50", "setting": "HIV-1 IIIB", "result": "125<"}, {"measurement": "anti-HIV activity in vitro (in words)", "setting": "HIV-1 IIIB", "result": "lowered in the activity"}]}
